Measurements as given in patent US6552196B2, “Quinolone carboxylic acid derivatives” (Dong Wha Pharmaceutical Industrial Co., Ltd., priority 1997, dated 2003).

Legend:
Format in all cases: cell-based
[1] = tested on: Staphylococcus aureus 697E; assay: In vitro antibacterial activity against resistant strains (MIC); conditions: resistant strain Staphylococcus aureus 697E; 2-fold agar dilution; methicillin resistant strains 48 hours at 30° C.
Procedure: (§1) 10^7 cfu/ml of bacteria were inoculated and cultured for 18 hours at 37° C. and then the antibacterial activities were measured. For the methicillin resistant strains the activities were measured after 48 hours of cultivation at 30° C. Hoechst Standard strains were used for the testings.

[2] = tested on: Staphylococcus aureus 690E; assay: as above; conditions: resistant strain Staphylococcus aureus 690E; 2-fold agar dilution; methicillin resistant strains 48 hours at 30° C.
Procedure: as §1

[3] = tested on: Staphylococcus aureus 241; assay: as above; conditions: resistant strain Staphylococcus aureus 241; 2-fold agar dilution; methicillin resistant strains 48 hours at 30° C.
Procedure: as §1

[4] = tested on: Staphylococcus aureus 293; assay: as above; conditions: resistant strain Staphylococcus aureus 293; 2-fold agar dilution; methicillin resistant strains 48 hours at 30° C.
Procedure: as §1

[5] = tested on: Staphylococcus aureus 694E; assay: as above; conditions: resistant strain Staphylococcus aureus 694E; 2-fold agar dilution; methicillin resistant strains 48 hours at 30° C.
Procedure: as §1

[6] = tested on: Staphylococcus aureus 121E; assay: as above; conditions: resistant strain Staphylococcus aureus 121E; 2-fold agar dilution; methicillin resistant strains 48 hours at 30° C.
Procedure: as §1

[7] = tested on: Staphylococcus aureus 179; assay: as above; conditions: resistant strain Staphylococcus aureus 179; 2-fold agar dilution; methicillin resistant strains 48 hours at 30° C.
Procedure: as §1

[8] = tested on: Staphylococcus aureus 8236; assay: as above; conditions: resistant strain Staphylococcus aureus 8236; 2-fold agar dilution; methicillin resistant strains 48 hours at 30° C.
Procedure: as §1

[9] = tested on: Staphylococcus aureus 256E; assay: as above; conditions: resistant strain Staphylococcus aureus 256E; 2-fold agar dilution; methicillin resistant strains 48 hours at 30° C.
Procedure: as §1

[10] = tested on: Staphylococcus aureus 88E; assay: as above; conditions: resistant strain Staphylococcus aureus 88E; 2-fold agar dilution; methicillin resistant strains 48 hours at 30° C.
Procedure: as §1

[11] = tested on: Staphylococcus epidermidis 178; assay: as above; conditions: resistant strain Staphylococcus epidermidis 178; 2-fold agar dilution; methicillin resistant strains 48 hours at 30° C.
Procedure: as §1

[12] = tested on: Staphylococcus aureus 703E; assay: as above; conditions: resistant strain Staphylococcus aureus 703E; 2-fold agar dilution; methicillin resistant strains 48 hours at 30° C.
Procedure: as §1

[13] = tested on: Staphylococcus aureus 692E; assay: as above; conditions: resistant strain Staphylococcus aureus 692E; 2-fold agar dilution; methicillin resistant strains 48 hours at 30° C.
Procedure: as §1

[14] = tested on: Staphylococcus aureus 303; assay: as above; conditions: resistant strain Staphylococcus aureus 303; 2-fold agar dilution; methicillin resistant strains 48 hours at 30° C.
Procedure: as §1

[15] = tested on: Staphylococcus aureus 693E; assay: as above; conditions: resistant strain Staphylococcus aureus 693E; 2-fold agar dilution; methicillin resistant strains 48 hours at 30° C.
Procedure: as §1

[16] = tested on: Staphylococcus aureus 701E; assay: as above; conditions: resistant strain Staphylococcus aureus 701E; 2-fold agar dilution; methicillin resistant strains 48 hours at 30° C.
Procedure: as §1

[17] = tested on: Staphylococcus epidermidis 291; assay: as above; conditions: resistant strain Staphylococcus epidermidis 291; 2-fold agar dilution; methicillin resistant strains 48 hours at 30° C.
Procedure: as §1

[18] = tested on: Staphylococcus aureus 208E; assay: as above; conditions: resistant strain Staphylococcus aureus 208E; 2-fold agar dilution; methicillin resistant strains 48 hours at 30° C.
Procedure: as §1

[19] = tested on: Staphylococcus aureus 695E; assay: as above; conditions: resistant strain Staphylococcus aureus 695E; 2-fold agar dilution; methicillin resistant strains 48 hours at 30° C.
Procedure: as §1

[20] = tested on: Pseudomonas aeruginosa 1592E; assay: In vitro antibacterial activity (MIC), agar dilution; conditions: 2-fold agar dilution, Muller-Hinton agar, 18 hours at 37° C.
Procedure: as §1

[21] = tested on: Pseudomonas aeruginosa 1771; assay: as above; conditions: 2-fold agar dilution, Muller-Hinton agar, 18 hours at 37° C.
Procedure: as §1

[22] = tested on: Streptococcus pyogens 308A; assay: as above; conditions: 2-fold agar dilution, Muller-Hinton agar, 18 hours at 37° C.
Procedure: as §1

[23] = tested on: Streptococcus pyogens 77A; assay: as above; conditions: 2-fold agar dilution, Muller-Hinton agar, 18 hours at 37° C.
Procedure: as §1

Esherichia coli 1507E = assay: as above; conditions: 2-fold agar dilution, Muller-Hinton agar, 18 hours at 37° C.
Procedure: as §1

[24] = tested on: Pseudomonas aeruginosa 9027; assay: as above; conditions: 2-fold agar dilution, Muller-Hinton agar, 18 hours at 37° C.
Procedure: as §1

Esherichia coli DC2 = assay: as above; conditions: 2-fold agar dilution, Muller-Hinton agar, 18 hours at 37° C.
Procedure: as §1

Klebsiella oxytoca 1082E = assay: as above; conditions: 2-fold agar dilution, Muller-Hinton agar, 18 hours at 37° C.
Procedure: as §1

[25] = tested on: Enterobacter clocae 1321E; assay: as above; conditions: 2-fold agar dilution, Muller-Hinton agar, 18 hours at 37° C.
Procedure: as §1

[26] = tested on: Streptococcus faecium MD 8b; assay: as above; conditions: 2-fold agar dilution, Muller-Hinton agar, 18 hours at 37° C.
Procedure: as §1

Esherichia coli TEM = assay: as above; conditions: 2-fold agar dilution, Muller-Hinton agar, 18 hours at 37° C.
Procedure: as §1

[27] = tested on: Pseudomonas aeruginosa 1771M; assay: as above; conditions: Pseudomonas aeruginosa 1771M; 2-fold agar dilution, Muller-Hinton agar, 18 hours at 37° C.
Procedure: as §1

[28] = tested on: Staphylococcus aureus SG511; assay: as above; conditions: 2-fold agar dilution, Muller-Hinton agar, 18 hours at 37° C.
Procedure: as §1

Esherichia coli 078 = assay: as above; conditions: 2-fold agar dilution, Muller-Hinton agar, 18 hours at 37° C.
Procedure: as §1

Enterobacter clocae P99 = assay: as above; conditions: 2-fold agar dilution, Muller-Hinton agar, 18 hours at 37° C.
Procedure: as §1

[29] = tested on: Staphylococcus aureus 285; assay: as above; conditions: 2-fold agar dilution, Muller-Hinton agar, 18 hours at 37° C.
Procedure: as §1

Esherichia coli DC0 = assay: as above; conditions: 2-fold agar dilution, Muller-Hinton agar, 18 hours at 37° C.
Procedure: as §1

Salmonella typhimurium = assay: as above; conditions: 2-fold agar dilution, Muller-Hinton agar, 18 hours at 37° C.
Procedure: as §1

[30] = tested on: Klebsiella aerogenes 1522E; assay: as above; conditions: 2-fold agar dilution, Muller-Hinton agar, 18 hours at 37° C.
Procedure: as §1

[31] = tested on: Staphylococcus aureus 503; assay: as above; conditions: 2-fold agar dilution, Muller-Hinton agar, 18 hours at 37° C.
Procedure: as §1

Measured: minimum inhibitory concentration (MIC)

CON=C1CN(c2c(F)c(N)c3c(=O)c(C(=O)O)cn(C4CC4)c3c2F)CC12CNC2.CS(=O)(=O)O [Example 5, 1-Cyclopropyl-5-amino-6,8-difluoro-7-[8-(methoxyimino)-2,6-diazaspiro[3,41]oct-6-yl]-4-oxo-1,4-dihydro-3-quinolinecarboxylic acid methanesulfonate]
391 ng/mL: [11] | [17] | [20] | [21]
4 ng/mL: [13] | [25]
25 ng/mL: [22] | [26] | [30]
13 ng/mL: [6] | Esherichia coli DC2 | Esherichia coli TEM
781 ng/mL: [24]
195 ng/mL: [27]
<2 ng/mL: [1] | [23] | Klebsiella oxytoca 1082E | [28] | Esherichia coli 078 | Salmonella typhimurium | [31]
98 ng/mL: [3] | [4] | [7] | [8] | [14] | Esherichia coli DC0
7 ng/mL: all other assays above
